Laboratory results as given in patent publication US20110166206A1, “UBIQUILIN REGULATION OF PRESENILIN ENDOPROTEOLYSIS, AND SUPPRESSION OF POLYGLUTAMINE-INDUCED TOXICITY IN CELLS” (UNIVERSITY OF MARYLAND BIOTECHNOLOGY INSTITUTE, priority 2005, published 2011).

How the values were obtained:
HeLa cells = experiment: Co-transfection of ubiquilin-1 cDNA with GFP-Htt Exon 1 Q74 construct in HeLa cells; format: cell-based
Description: FIG. 9. […] Immunoblots showing GFP-immunoreactivity after biochemical fractionation of parallel sets of HeLa cells transfected with the constructs described in (A) into Triton-X100 soluble and pellet fractions. • D. Densitometric quantification of anti-GFP immunoreactive bands depicting the relative amount of GFP-irnmunoreaction found in the pellet compared to that the total (soluble and pellet fractions combined).
HeLa cells were grown in DME supplemented with 10% FBS. Cells were transiently transfected with plasmid DNA using by calcium phosphate coprecipitation. Stable HeLa cell lines were isolated by cotransfection of EGFP expression constructs with a pNeo plasmid and selection with G418. Stable cell lines were identified by GFP-fluorescence.
Cell death was monitored either through examination of the nuclear morphology observed after Hoechst 33342 (1 μg/ml) staining, or through detecting the membrane selective permeability following 3 μM of propidium iodide (PI) staining. Terminal deoxynucleotidyl Transferase Biotin-dUTP Nick End Labeling (TUNEL) staining was performed with DeadEnd Colorimetric TUNEL staining kits purchased from Promega. For detecting caspase-3 activation, two methods were used. Cell lysates were separated by SDS-PAGE and probed with an antibody against the cleaved substrate for caspase-3. Alternatively, caspase activity was also detected by flurogenic techniques by incubating the cell lysates with a flurogenic caspase-3 substrate, AC-DEVD-AMC in a 96-well plate. After incubation, the cleaved free AMC was scanned by a fluorescence multi-well plate reader (SOSTmax, Sunnyvale, CA) with an excitation at 380 nm (excitation) and emission at 460 nm (emission).
Having established that expression of GFP-tagged Htt-Exon1-polyglutamine fusion proteins in HeLa cells caused a polyglutamine-number dependent increase in intracellular inclusion formation, Triton-X100 insolubility, and cell death, it was necessary to examined what effect overexpression of ubiquilin-1 has on these properties. […]

[1] = tested on: GFP-HttQ74-3 and GFP-HttQ28-2 HeLa cell lines; experiment: Ubiquilin-1 transfection of stable GFP-HttPolyQ HeLa cell lines, serum withdrawal-induced cell death and aggregates; format: cell-based
Source text: FIG. 11. […] The 28Q-2 and 74Q-3 were used in most of our studies. The asterisk corresponds to a non-specific band that is detected by the GFP antibody. • B. Representative fluorescent images of GFP-HttPolyQ(28)-2 and GFP-HttPolyQ(74)-3 stable cell lines. Note that GFP fluorescence is located in both the cytoplasm and the nucleus, but that compact foci are only seen in the GFP-HttPolyQ(74)-3 cells. • C. Cells expressing expanded polyglutamine proteins are more sensitive to H2O2. The GFP-HftPolyQ(28)-2 and GFP-HttPolyQ(74)-3 stable cell lines were exposed to 200 μM concentration of H2O2 and after 5 hr, the cells were stained with both Hoechest 33342 and PI. The cells stained by PI represent the dead cells whereas all the nuclei are identified by Hoechst 33342 staining. • D. Graph showing percentage of cell death after the cells were exposed to different concentrations of H2O2 for 5 hr. Percentages of cell death calculated by determining the ratio of PI-positively stained cells to that of Hoechst-stained cells. There was a significant difference in cell death upon exposure of GFP-HttPolyQ(28)-2 and GFP-HttPolyQ(74)-3 to 100 μM, 150 μM, or 200 μM of H2O2 (p<0.001). • E. Representative images showing that overexpression of ubiquilin-1 protects GFP-HttPolyQ(74)-3 expressing cells against serum withdrawal-induced cell death. Cells stably expressing GFP-HttPolyQ(28) or GFP-HttPolyQ(74) were transiently transfected with or without (mock transfection) plasmids encoding ubiquilin-1 by the calcium phosphate coprecipitation method. […] Cell death was quantified as described in D above. • H. Representative images showing that ubiquilin-1 overexpression protects GFP-HttPolyQ(74)-3 expressing cells against serum withdrawal-induced cell death, in a dose-dependent manner. […] After 5 hours of serum withdrawal and 30 hours following the transfection, the amount of cell death was analyzed by staining cells with both PI and Hoechst 33342. • I. Graph showing quantification of cell death in the experiments described in H. • J. Immunoblot showing overexpression of increasing amounts of ubiquilin-1 cDNA in the GFP-HttPolyQ(74)-3 cell line reduces GFP-aggregates trapped in the stacking gel after SDS-PAGE. […] Bottom panel: Quantification of the spot intensity determined in three independent experiments.
HeLa cells were grown in DME supplemented with 10% FBS. […] Stable cell lines were identified by GFP-fluorescence.
Cell death was monitored either through examination of the nuclear morphology observed after Hoechst 33342 (1 μg/ml) staining, or through detecting the membrane selective permeability following 3 μM of propidium iodide (PI) staining. […]

With “UBQLN1: PS-interacting protein ubiquilin-1, overexpressed in cells from a cDNA expression plasmid” the “GFP-HttPolyQ74 fusion protein accumulation” value (HeLa cells; anti-GFP immunoblot) was “dose-dependent increase in accumulation”, the “Triton-X100 solubility of GFP-HttPolyQ74 fusion protein” value (HeLa cells; biochemical fractionation) was “a greater proportion of the GFP-HttPolyQ74-fusion protein remained soluble” and the cell death (HeLa cells; increasing amounts of ubiquilin-1 cDNA vs GFP-Htt Exon-1PolyQ74 alone) was “dose-dependent decrease in cell death”. The “spot intensity of GFP-aggregates, filter retardation assay” value ([1]; GFP-HttPolyQ(74)-3 cells, 2, 3 and 6 μg vs mock or 1 μg) was “significantly lower”, the “cell death, ubiquilin-1-transfected vs mock-transfected” value ([1]; GFP-HttQ28-2 cell line) was “no significant difference in cell death” and the “protection against cell death with increasing amounts of plasmid” value ([1]; GFP-HttQ74-3 cell line) was “dose-dependent protection against cell death”. The “reduction in cell death” value ([1]; GFP-HttQ74-3 cell line, 24 hours after transfection and serum deprivation, vs untransfected) was “approximately 50%”.
